Legend:
[1] = test system: MDA-MB-468; assay: NCI-60 anticancer screen (SRB; single dose and five doses); format: cell-based, human
Procedure, shortened: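 NCI panel of about 60 human tumor cell lines treated with compound at a single concentration (10μM) for 48 h. Growth measured by SRB protein staining and expressed as percent growth of treated versus untreated control cells.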

[2] = test system: 60 human tumor cell lines panel; assay: NCI-60 anticancer screen, whole panel (means and ranges over the cell lines); format: cell-based
[3] = test system: OVCAR-3; assay: cells; settings: Homo sapiens
[4] = test system: K-562; assay: NCI-60 anticancer screen (SRB; single dose and five doses); settings: Homo sapiens
[5] = test system: EKVX; assay: as above; settings: Homo sapiens
[6] = test system: HOP-92; assay: as above; settings: Homo sapiens
[7] = test system: NCI-H226; assay: as above; settings: Homo sapiens
[8] = test system: NCI-H322M; assay: as above; settings: Homo sapiens
[9] = test system: NCI-H522; assay: as above; settings: Homo sapiens
[10] = test system: COLO 205; assay: as above; settings: Homo sapiens
[11] = test system: HCT-116; assay: as above; settings: Homo sapiens
[12] = test system: HCT-15; assay: as above; settings: Homo sapiens
[13] = test system: HT29; assay: as above; settings: Homo sapiens
[14] = test system: SF-268; assay: as above; settings: Homo sapiens
[15] = test system: SNB-75; assay: as above
[16] = test system: U251; assay: as above; settings: Homo sapiens
[17] = test system: SK-MEL-2; assay: as above; settings: Homo sapiens
[18] = test system: UACC-62; assay: as above; settings: Homo sapiens
[19] = test system: IGROV1; assay: as above; settings: Homo sapiens
[20] = test system: OVCAR-8; assay: as above; settings: Homo sapiens
[21] = test system: ACHN; assay: as above; settings: Homo sapiens
[22] = test system: CAKI-1; assay: as above; settings: Homo sapiens
[23] = test system: UO-31; assay: as above; settings: Homo sapiens
[24] = test system: MCF7; assay: as above; settings: Homo sapiens
[25] = test system: HS 578T; assay: as above; settings: Homo sapiens
[26] = five doses, mean graph midpoint over all cell lines
[27] = 48 h, read-out: Growth Percentage

Structure (SMILES): Cc1[nH]c(=S)sc1C(=O)/C=C/c1cccc(Cl)c1 [2e, (E)-3-(3-Chlorophenyl)-1-(4-Methyl-2-Thioxo-2,3-Dihydrothiazol-5-yl)Prop-2-En-1-One]
- activity at 10 µM ([1]; Homo sapiens, 48 h, MDA-MB-468, dose of 10 μM, read-out: Growth Percentage): -7.12%
- IC50 ([1]; Homo sapiens, MDA-MB-468, MDA-MB-468, Breast Cancer, five dose): 12.6 µM
- GI50 ([1]; Homo sapiens, MDA-MB-468, Breast Cancer, five dose): 3.8 µM
- CC50 ([1]; Homo sapiens, MDA-MB-468, Breast Cancer, five dose, read-out: LC50 (the source's name)): 46.8 µM
- TGI ([1]; MDA-MB-468, Breast Cancer, five dose): 15.85 µM
- activity at 10 µM ([2]; Homo sapiens, 48 h, range over the cell lines, dose of 10 μM, read-out: growth percentages against most of the tested cells (lowest to highest)): -26.1 to 98%
- Log10GI50 _MID [2, 26]: -5.17 Molar
- Log10LC50 _MID [2, 26]: -4.26 Molar
- Log10TGI _MID [2, 26]: -4.66 Molar
- GI50 ([3]; OVCAR-3): 2.29 µM
- IC50 ([3]; OVCAR-3): 4.17 µM
- activity at 10 µM ([3]; OVCAR-3, 48 h, read-out: Growth Percentage): 8.26%
- CC50 ([3]; OVCAR-3, read-out: LC50): 22.9 µM
- IC (TGI) ([3]; OVCAR-3, read-out: TGI): 6.03 µM
- GI50 ([4]; K562): 3.39 µM
- IC50 ([4]; K562): 4.27 µM
- activity at 10 µM ([4]; K562, 48 h, read-out: Growth Percentage): 16.8%
- CC50 ([4]; K562, read-out: LC50): > 100 µM
- IC (TGI) ([4]; K562, read-out: TGI): > 100 µM
- GI50 [5]: 10.5 µM
- IC50 [5]: 24 µM
- activity at 10 µM [5, 27]: 34.7%
- CC50 ([5]; read-out: LC50): 95.5 µM
- IC (TGI) ([5]; read-out: TGI): 31.6 µM
- GI50 ([6]; HOP-92): 3.55 µM
- IC50 ([6]; HOP-92): 79.4 µM
- CC50 ([6]; HOP-92, read-out: LC50): > 100 µM
- IC (TGI) ([6]; HOP-92, read-out: TGI): 30.9 µM
- GI50 ([7]; NCI-H226): 4.37 µM
- IC50 ([7]; NCI-H226): 29.5 µM
- activity at 10 µM ([7]; NCI-H226, 48 h, read-out: Growth Percentage): 32.7%
- CC50 ([7]; NCI-H226, read-out: LC50): > 100 µM
- IC (TGI) ([7]; NCI-H226, read-out: TGI): 38.9 µM
- GI50 [8]: 6.03 µM
- IC50 [8]: 16.2 µM
- activity at 10 µM [8, 27]: 50.1%
- CC50 ([8]; read-out: LC50): 85.1 µM
- IC (TGI) ([8]; read-out: TGI): 26.3 µM
- GI50 ([9]; NCI-H522): 4.57 µM
- IC50 ([9]; NCI-H522): 11.5 µM
- activity at 10 µM ([9]; NCI-H522, 48 h, read-out: Growth Percentage): 22%
- CC50 ([9]; NCI-H522, read-out: LC50): 45.7 µM
- IC (TGI) ([9]; NCI-H522, read-out: TGI): 17.4 µM
- GI50 ([10]; COLO 205): 3.55 µM
- IC50 ([10]; COLO 205): 5.25 µM
- activity at 10 µM ([10]; COLO 205, 48 h, read-out: Growth Percentage): 70.7%
- CC50 ([10]; COLO 205, read-out: LC50): 51.3 µM
- IC (TGI) ([10]; COLO 205, read-out: TGI): 14.4 µM
- GI50 ([11]; HCT-116): 1.82 µM
- IC50 ([11]; HCT-116): 2.95 µM
- activity at 10 µM ([11]; HCT-116, 48 h, read-out: Growth Percentage): 3.28%
- CC50 ([11]; HCT-116, read-out: LC50): 7.41 µM
- IC (TGI) ([11]; HCT-116, read-out: TGI): 3.63 µM
- GI50 ([12]; HCT-15): 2.09 µM
- IC50 ([12]; HCT-15): 3.55 µM
- activity at 10 µM ([12]; HCT-15, 48 h, read-out: Growth Percentage): -22%
- CC50 ([12]; HCT-15, read-out: LC50): 46.8 µM
- IC (TGI) ([12]; HCT-15, read-out: TGI): 5.89 µM
- GI50 ([13]; HT-29): 2.24 µM
- IC50 ([13]; HT-29): 3.55 µM
- activity at 10 µM ([13]; HT-29, 48 h, read-out: Growth Percentage): 29.9%
- CC50 ([13]; HT-29, read-out: LC50): 12.6 µM
- IC (TGI) ([13]; HT-29, read-out: TGI): 4.9 µM
- GI50 ([14]; SF-268): 3.72 µM
- IC50 ([14]; SF-268): 7.59 µM
- activity at 10 µM ([14]; SF-268, 48 h, read-out: Growth Percentage): 51.8%
- CC50 ([14]; SF-268, read-out: LC50): 97.7 µM
- IC (TGI) ([14]; SF-268, read-out: TGI): 17 µM
- GI50 ([15]; Homo sapiens, SNB-75): 1.66 µM
- IC50 ([15]; Homo sapiens, SNB-75): 3.8 µM
- activity at 10 µM ([15]; Homo sapiens, SNB-75, 48 h, read-out: Growth Percentage): 8.74%
- TGI ([15]; five-dose, CNS Cancer SNB-75): 3.63 µM
- GI50 ([16]; U-251): 1.91 µM
- IC50 ([16]; U-251): 3.31 µM
- activity at 10 µM ([16]; U-251, 48 h, read-out: Growth Percentage): 12.1%
- CC50 ([16]; U-251, read-out: LC50): 7.24 µM
- IC (TGI) ([16]; U-251, read-out: TGI): 3.72 µM
- GI50 ([17]; SK-MEL-2): 10.5 µM
- IC50 ([17]; SK-MEL-2): 29.5 µM
- activity at 10 µM ([17]; SK-MEL-2, 48 h, read-out: Growth Percentage): 32.1%
- CC50 ([17]; SK-MEL-2, read-out: LC50): 70.8 µM
- IC (TGI) ([17]; SK-MEL-2, read-out: TGI): 27.5 µM
- GI50 ([18]; UACC-62): 2.34 µM
- IC50 ([18]; UACC-62): 4.17 µM
- activity at 10 µM ([18]; UACC-62, 48 h, read-out: Growth Percentage): 30%
- IC (TGI) ([18]; UACC-62, read-out: TGI): 8.71 µM
- GI50 ([19]; IGROV-1): 2.45 µM
- IC50 ([19]; IGROV-1): 4.17 µM
- activity at 10 µM ([19]; IGROV-1, 48 h, read-out: Growth Percentage): 34%
- CC50 ([19]; IGROV-1, read-out: LC50): > 100 µM
- IC (TGI) ([19]; IGROV-1, read-out: TGI): 6.46 µM
- GI50 ([20]; OVCAR-8): 2.69 µM
- IC50 ([20]; OVCAR-8): 3.89 µM
- activity at 10 µM ([20]; OVCAR-8, 48 h, read-out: Growth Percentage): 10.4%
- CC50 ([20]; OVCAR-8, read-out: LC50): > 100 µM
- IC (TGI) ([20]; OVCAR-8, read-out: TGI): 7.59 µM
- GI50 [21]: 2.29 µM
- IC50 [21]: 3.72 µM
- activity at 10 µM [21, 27]: 22.9%
- CC50 ([21]; read-out: LC50): 21.4 µM
- IC (TGI) ([21]; read-out: TGI): 6.03 µM
- GI50 ([22]; CAKI-1): 4.68 µM
- IC50 ([22]; CAKI-1): 15.5 µM
- activity at 10 µM ([22]; CAKI-1, 48 h, read-out: Growth Percentage): 23.9%
- CC50 ([22]; CAKI-1, read-out: LC50): 69.2 µM
- IC (TGI) ([22]; CAKI-1, read-out: TGI): 20.9 µM
- GI50 ([23]; UO-31): 1.55 µM
- IC50 ([23]; UO-31): 2.88 µM
- activity at 10 µM ([23]; UO-31, 48 h, read-out: Growth Percentage): 34.3%
- IC (TGI) ([23]; UO-31, read-out: TGI): 3.09 µM
- GI50 ([24]; MCF7): 3.31 µM
- IC50 ([24]; MCF7): 8.13 µM
- activity at 10 µM ([24]; MCF7, 48 h, read-out: Growth Percentage): 7.9%
- CC50 ([24]; MCF7, read-out: LC50): 37.1 µM
- IC (TGI) ([24]; MCF7, read-out: TGI): 12.3 µM
- GI50 [25]: 3.09 µM
- IC50 [25]: > 100 µM
- activity at 10 µM [25, 27]: 47.2%
- CC50 ([25]; read-out: LC50): > 100 µM
- IC (TGI) ([25]; read-out: TGI): 85.1 µM

From paper PMC11435058, “Synthesis of New Thiazole-Privileged Chalcones as Tubulin Polymerization Inhibitors with Potential Anticancer Activities” (Pharmaceuticals, 2024)
